Measurements taken from PubChem BioAssay AID248 (DTP/NCI, 2004).
Values joined by “and” are separate entries in the source; they are usually repeats but may differ in a detail not shown here. Equal entries are not always repeated. Inconclusive results and toxic doses are left out. No stated cut-off is given here; in the data, active means T/C of 150% or more; inactive means T/C below 125%.

Test system: L1210 leukemia ip in BDF1 mice, survival T/C
Experiment: NCI In Vivo Anticancer Drug Screen. Data for tumor model L1210 Leukemia (intraperitoneal) in B6D2F1 (BDF1) mice
Conditions: higher = longer survival
Outline: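 Tumor cells were implanted, animals were treated, and survival was followed. The result divides the treated measurement by the vehicle-control measurement.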

[1] = endpoint: mean survival time, dose: 100.0 mg/kg/injection, schedule: Q04DX003 (ip), vehicle: Klucel (hydroxypropylcellulose) (HPC)
[2] = endpoint: mean survival time, dose: 200.0 mg/kg/injection, schedule: Q04DX003 (ip), vehicle: Klucel (hydroxypropylcellulose) (HPC)
[3] = endpoint: mean survival time, dose: 100.0 mg/kg/injection, schedule: Q01DX001 (ip), vehicle: saline

Measured: T/C

N#CNC(=S)S
inactive: endpoint: mean survival time, dose: 100.0 mg/kg/injection, schedule: Q04DX003 (ip), vehicle: saline 105 % of control | endpoint: mean survival time, dose: 200.0 mg/kg/injection, schedule: Q04DX003 (ip), vehicle: saline 93 % of control | endpoint: mean survival time, dose: 400.0 mg/kg/injection, schedule: Q04DX003 (ip), vehicle: saline 104 % of control

CCCC(C1=CC(C)(C)c2ccccc2C1=O)c1ccc(Br)cc1 (stereo not drawn)
inactive: endpoint: mean survival time, dose: 100.0 mg/kg/injection, schedule: Q01DX009 (ip), vehicle: Klucel (hydroxypropylcellulose) (HPC) 108 % of control | [1] 110 % of control | endpoint: mean survival time, dose: 200.0 mg/kg/injection, schedule: Q01DX009 (ip), vehicle: Klucel (hydroxypropylcellulose) (HPC) 106 % of control | [2] 113 % of control | endpoint: mean survival time, dose: 400.0 mg/kg/injection, schedule: Q01DX009 (ip), vehicle: Klucel (hydroxypropylcellulose) (HPC) 103 % of control | endpoint: mean survival time, dose: 400.0 mg/kg/injection, schedule: Q04DX003 (ip), vehicle: Klucel (hydroxypropylcellulose) (HPC) 106 % of control

CC(=O)Nc1cc2c(cc1[N+](=O)[O-])-c1ccc(F)cc1C2
inactive: endpoint: mean survival time, dose: 50.0 mg/kg/injection, schedule: Q04DX003 (ip), vehicle: Klucel (hydroxypropylcellulose) (HPC) 104 % of control | endpoint: mean survival time, dose: 100.0 mg/kg/injection, schedule: Q01DX001 (ip), vehicle: carboxymethylcellulose (CMC) 94 % of control | [1] 96 % of control | endpoint: mean survival time, dose: 200.0 mg/kg/injection, schedule: Q01DX001 (ip), vehicle: carboxymethylcellulose (CMC) 96 % of control | [2] 100 % of control | endpoint: mean survival time, dose: 400.0 mg/kg/injection, schedule: Q01DX001 (ip), vehicle: carboxymethylcellulose (CMC) 91 % of control

CCCCCCCC(=O)N1CCCN(C(=O)CCCCCCC)C1
inactive: endpoint: mean survival time, dose: 30.0 mg/kg/injection, schedule: Q01DX001 (ip), vehicle: saline 94 % of control | [3] 100 % of control

CC(=O)NCC(O)C(O)C(O)C(O)CO (stereo not drawn)
inactive: endpoint: mean survival time, dose: 100.0 mg/kg/injection, schedule: Q04DX002 (ip), vehicle: saline 98 % of control | endpoint: mean survival time, dose: 200.0 mg/kg/injection, schedule: Q04DX002 (ip), vehicle: saline 92 % of control | endpoint: mean survival time, dose: 400.0 mg/kg/injection, schedule: Q04DX002 (ip), vehicle: saline 103 % of control

c1ccc(-c2nnc3ccccn23)cc1
inactive: endpoint: mean survival time, dose: 100.0 mg/kg/injection, schedule: Q01DX001 (ip), vehicle: Klucel (hydroxypropylcellulose) (HPC) 102 % of control | endpoint: mean survival time, dose: 200.0 mg/kg/injection, schedule: Q01DX001 (ip), vehicle: Klucel (hydroxypropylcellulose) (HPC) 106 % of control

OCC(O)COCc1ccccc1 (stereo not drawn)
inactive: endpoint: mean survival time, dose: 100.0 mg/kg/injection, schedule: Q04DX003 (ip), vehicle: saline with Tween-80 109 % of control | endpoint: mean survival time, dose: 200.0 mg/kg/injection, schedule: Q04DX003 (ip), vehicle: saline with Tween-80 104 % of control | endpoint: mean survival time, dose: 400.0 mg/kg/injection, schedule: Q04DX003 (ip), vehicle: saline with Tween-80 106 % of control

CC/C(=C(/CC)c1ccc(O)cc1)c1ccc(O)cc1
inactive: endpoint: mean survival time, dose: 6.44 mg/kg/injection, schedule: Q01DX Z (sc), vehicle: steriod suspending solution 98 % of control | endpoint: mean survival time, dose: 12.88 mg/kg/injection, schedule: Q01DX Z (sc), vehicle: steriod suspending solution 109 % of control | endpoint: mean survival time, dose: 25.0 mg/kg/injection, schedule: Q01DX009 (ip), vehicle: carboxymethylcellulose (CMC) 87 % of control | endpoint: mean survival time, dose: 25.75 mg/kg/injection, schedule: Q01DX Z (sc), vehicle: steriod suspending solution 107 % of control | endpoint: mean survival time, dose: 50.0 mg/kg/injection, schedule: Q01DX001 (ip), vehicle: saline 90 % of control | endpoint: mean survival time, dose: 50.0 mg/kg/injection, schedule: Q01DX009 (ip), vehicle: carboxymethylcellulose (CMC) 94 % of control | endpoint: mean survival time, dose: 51.5 mg/kg/injection, schedule: Q01DX Z (sc), vehicle: steriod suspending solution 100 % of control | [3] 94 % of control | endpoint: mean survival time, dose: 100.0 mg/kg/injection, schedule: Q01DX009 (ip), vehicle: carboxymethylcellulose (CMC) 95 % of control | endpoint: mean survival time, dose: 200.0 mg/kg/injection, schedule: Q01DX001 (ip), vehicle: saline 95 % of control | endpoint: mean survival time, dose: 200.0 mg/kg/injection, schedule: Q01DX009 (ip), vehicle: carboxymethylcellulose (CMC) 91 % of control | endpoint: mean survival time, dose: 400.0 mg/kg/injection, schedule: Q01DX001 (ip), vehicle: saline 87 % of control | endpoint: median survival time, dose: 8.0 mg/kg/injection, schedule: Q03HX016 (ip), vehicle: saline with Tween-80 97 % of control | endpoint: median survival time, dose: 8.0 mg/kg/injection, schedule: Q03HX024 (ip), vehicle: saline with Tween-80 98 % of control | endpoint: median survival time, dose: 12.5 mg/kg/injection, schedule: Q01DX009 (sc), vehicle: steriod suspending solution 100 % of control and 111 % of control | endpoint: median survival time, dose: 16.0 mg/kg/injection, schedule: Q01DX009 (ip), vehicle: saline with Tween-80 113 % of control | endpoint: median survival time, dose: 16.0 mg/kg/injection, schedule: Q03HX008 (ip), vehicle: saline with Tween-80 101 % of control | endpoint: median survival time, dose: 16.0 mg/kg/injection, schedule: Q03HX016 (ip), vehicle: saline with Tween-80 97 % of control | endpoint: median survival time, dose: 16.0 mg/kg/injection, schedule: Q03HX024 (ip), vehicle: saline with Tween-80 91 % of control | endpoint: median survival time, dose: 25.0 mg/kg/injection, schedule: Q01DX009 (sc), vehicle: steriod suspending solution 100 % of control and 106 % of control | endpoint: median survival time, dose: 32.0 mg/kg/injection, schedule: Q01DX009 (ip), vehicle: saline with Tween-80 110 % of control | endpoint: median survival time, dose: 32.0 mg/kg/injection, schedule: Q03HX008 (ip), vehicle: saline with Tween-80 97 % of control | endpoint: median survival time, dose: 32.0 mg/kg/injection, schedule: Q03HX016 (ip), vehicle: saline with Tween-80 97 % of control | endpoint: median survival time, dose: 32.0 mg/kg/injection, schedule: Q03HX024 (ip), vehicle: saline with Tween-80 98 % of control | endpoint: median survival time, dose: 50.0 mg/kg/injection, schedule: Q01DX009 (sc), vehicle: steriod suspending solution 100 % of control and 105 % of control | endpoint: median survival time, dose: 64.0 mg/kg/injection, schedule: Q01DX009 (ip), vehicle: saline with Tween-80 103 % of control | endpoint: median survival time, dose: 64.0 mg/kg/injection, schedule: Q03HX008 (ip), vehicle: saline with Tween-80 103 % of control | endpoint: median survival time, dose: 64.0 mg/kg/injection, schedule: Q03HX016 (ip), vehicle: saline with Tween-80 100 % of control | endpoint: median survival time, dose: 64.0 mg/kg/injection, schedule: Q03HX024 (ip), vehicle: saline with Tween-80 94 % of control | endpoint: median survival time, dose: 64.0 mg/kg/injection, schedule: Q04DX003 (ip), vehicle: saline with Tween-80 100 % of control | endpoint: median survival time, dose: 64.0 mg/kg/injection, schedule: Q08DX002 (ip), vehicle: saline with Tween-80 106 % of control | endpoint: median survival time, dose: 100.0 mg/kg/injection, schedule: Q01DX009 (sc), vehicle: steriod suspending solution 100 % of control and 105 % of control | endpoint: median survival time, dose: 128.0 mg/kg/injection, schedule: Q01DX001 (ip), vehicle: saline with Tween-80 107 % of control | endpoint: median survival time, dose: 128.0 mg/kg/injection, schedule: Q01DX009 (ip), vehicle: saline with Tween-80 102 % of control | endpoint: median survival time, dose: 128.0 mg/kg/injection, schedule: Q04DX003 (ip), vehicle: saline with Tween-80 101 % of control | endpoint: median survival time, dose: 128.0 mg/kg/injection, schedule: Q08DX002 (ip), vehicle: saline with Tween-80 104 % of control | endpoint: median survival time, dose: 256.0 mg/kg/injection, schedule: Q01DX001 (ip), vehicle: saline with Tween-80 109 % of control | endpoint: median survival time, dose: 256.0 mg/kg/injection, schedule: Q04DX003 (ip), vehicle: saline with Tween-80 107 % of control | endpoint: median survival time, dose: 256.0 mg/kg/injection, schedule: Q08DX002 (ip), vehicle: saline with Tween-80 98 % of control | endpoint: median survival time, dose: 512.0 mg/kg/injection, schedule: Q01DX001 (ip), vehicle: saline with Tween-80 108 % of control | endpoint: median survival time, dose: 512.0 mg/kg/injection, schedule: Q08DX002 (ip), vehicle: saline with Tween-80 92 % of control | endpoint: median survival time, dose: 1024.0 mg/kg/injection, schedule: Q08DX002 (ip), vehicle: saline with Tween-80 102 % of control | endpoint: median survival time, dose: 2048.0 mg/kg/injection, schedule: Q08DX002 (ip), vehicle: saline with Tween-80 102 % of control
